These results are taken from patent US20130085133A1, “ANTI-VIRAL TREATMENT AND ASSAY TO SCREENFOR ANTI-VIRAL AGENT” (Sourthern Research Institute Office of Commercialization …, priority 2010, published 2013).

Where only a bound is given, the exact number is not on record here.

For series [1], the system named is respiratory syncytial virus (RSV) strain Long. As to the kind of experiment: microbe, parasite or virus in culture. The following applies: human respiratory syncytial virus, HEp-2, 144 h.
Method: The assay measures RSV virus-induced CPE in HEp-2 cells using cell viability as the end point.
Two vials of RSV (strain Long) containing 1×10^7 pfu/mL was thawed using an Eppendorf thermomixer for 13 min at 15° C., with shaking at 350 rpm. […] The cells were incubated for 18-20 h at 37° C., 5% CO2, 90% relative humidity. The medium was aspirated and the cells washed with 10 mL PBS without Mg^2+ or Ca^2+. Cells were harvested from flasks using 0.25% trypsin-EDTA. The cells were resuspended in a freezing medium of 95% fetal calf serum and 5% DMSO to a final cell density of 2×10^6 cells/mL. One mL aliquots of this virus infected cell suspension were dispensed to cryovials and cells were rate frozen to −80° C. Frozen infected cells were then transferred to −150° C. for long term storage.
Test compounds were evaluated by measuring their antiviral activity, cell toxicity, and selectivity. Test compounds were serially diluted in a plate to plate matrix or “stacked plate” matrix. All 320 compounds in a source plate were diluted together resulting in a 10 point dose response dilution series. It was visualized as a serial dilution series proceeding vertically through a stack of plates with the high dose plate on top and the low dose plate on the bottom.
Cells were harvested and resuspended to 80,000 cells per ml in Complete DMEM/F12.
Cells were thawed in a room temperature water bath with gentle agitation. The tube was inverted 5-10. Cells were diluted to 80,000 cells per ml by adding the contents of the vial to 24 ml of cold (4° C.) media.
Twenty five ul of uninfected HEp-2 cells were plated in the cell control wells. Frozen infected cells were combined with uninfected HEp-2 cells at a 1:100 ratio. Twenty five ul of the cell mixture was added to the virus control and compound wells. All cell plating was conducted using a Matrix WellMate and cells were maintained at room temperature with stirring during the plating process. The assay plates were incubated for six days at 37° C., 5% CO2 and 90% relative humidity.
Following the six day incubation period, the assay plates were equilibrated to room temperature for 30 min and an equal volume (30 μL) of Cell Titer-Glo reagent (Promega Inc.) was added to each well using a WellMate (Matrix, Hudson, N.H.) and plates were incubated for an additional 10 min at room temperature. At the end of the incubation, luminescence was measured using a Perkin Elmer Envision™ multi-label reader (PerkinElmer, Wellesley, Mass.) with an integration time of 0.1 s.
Data was analyzed using ActivityBase software (IDBS, Inc, Guilford, UK). thirty two control wells containing cells only and twenty four wells containing cells and virus were included on each assay plate and used to calculate Z′ value for each plate and to normalize the data on a per plate basis. […] Eight ribavirin positive control wells were included on each plate for quality control purposes, but were not used in Z′ calculations. […] In the toxicity assay, results are described as percent viability and the calculation is the same.
An EC50 (for CPE inhibition) and IC50 (for cell viability) were calculated for each substance using the 4 parameter Levenburg-Marquardt algorithm with parameter A locked at 0 and parameter B locked at 100. Standard deviation, normalized chi2 and hill slope were used to evaluate the curves. Values were not extrapolated beyond the tested range of concentrations.
Series [2] can be described thus: cytotoxicity assay (percent viability of HEp-2 cells, Cell Titer-Glo). The conditions noted are these: human, HEp-2 cells. Background: ATP-based viability assays read luminescence as a measure of living cells.

The EC50 is the concentration needed to bring the measured effect to its halfway point. A lower EC50 goes with an effect from little substance. For orientation: CC50 means the concentration at which the toxic effect on the cells reaches its halfway point. A high value points to better tolerance by the cells.

In turn, `Oc1ccc(O)cc1` [AB00053361] came in with an EC50 in series [1] of 47.9 µM. Further, the CC50 at 6 days in series [2] was > 50 µM.

`Cc1ccc(-c2nc3cc(N)ccc3o2)cc1Br` [AB00076694] had a 50% effective concentration (EC50) in series [1] of 16.4 µg/mL. For the same compound, the CC50 at 6 days in series [2] was > 25 µg/mL.

`NC(=O)c1ccccc1NC(=O)CSc1nc2ccccc2o1` [AB00132114] returned a concentration giving a half-maximal response (EC50) in series [1] of 20.7 µg/mL. Further, the CC50 at 6 days in series [2] is > 25 µg/mL.

In turn, `Cn1cnnc1SCC(=O)N1c2ccccc2Sc2ccc(C(F)(F)F)cc21` [AB00139215] yielded a half-maximal effective concentration (EC50) in series [1] of 10.9 µg/mL. Moreover, the 50% cytotoxic concentration (CC50) at 6 days in series [2] is > 25 µg/mL.

Consider `O=c1[nH]c(=O)n(Cc2ccc([N+](=O)[O-])cc2)cc1F` [AB00173190], for which the EC50 in series [1] worked out at 21 µM. Moreover, the half-maximal cytotoxic concentration (CC50) at 6 days in series [2] is > 50 µM.

In series [1], `Cc1ccc(C)n1-c1ccc(C(=O)O)cc1` [AB00275199] registered a concentration for a half-maximal effect (EC50) of 13 µg/mL. For the same compound, the CC50 at 6 days in series [2] is > 25 µg/mL.

`Oc1cccc2ccc(N3CCOCC3)nc12` [AB00275625] displayed a half-maximal effective concentration (EC50) in series [1] of 15.2 µg/mL. For the same compound, the half-maximal cytotoxic concentration (CC50) at 6 days in series [2] is > 25 µg/mL.

`O=C(c1ccc(O)cc1O)c1ccc(O)cc1O` [AB00275918] gave an EC50 in series [1] of 20.5 µg/mL. The CC50 at 6 days in series [2] is > 25 µg/mL.

In series [1], `Cc1cnc(NC(=O)c2ccc(Cl)cc2Cl)s1` [AB00276221] came in with an EC50 of 17.6 µg/mL. Further, the CC50 at 6 days in series [2] is > 25 µg/mL.

In series [1], `O=C(N1CCCC1)N1c2ccccc2CCc2ccccc21` [AB00276381] came in with a 50% effective concentration (EC50) of 12.2 µg/mL. Moreover, the half-maximal cytotoxic concentration (CC50) at 6 days in series [2] is > 25 µg/mL.

With `O=C(Nc1cccc(C(F)(F)F)c1)c1ccccc1Cl` [AB00276634], it took 15.8 µg/mL to reach a half-maximal effect in series [1] (EC50). Besides, the CC50 at 6 days in series [2] is > 25 µg/mL.

Turning to `O=c1[nH]cnc2sc3c(c12)CCCCC3` [AB00276706], the response in series [1] was half-maximal at 19.6 µg/mL (EC50). Moreover, in series [2], the half-maximal cytotoxic concentration (CC50) at 6 days is > 25 µg/mL.

In turn, `Cc1ccc2c(ccc3nc(C)ccc32)n1` [AB00278348] returned an EC50 in series [1] of 12.6 µg/mL. Further, in series [2], the 50% cytotoxic concentration (CC50) at 6 days was > 25 µg/mL.

With `CC(=O)CCc1c(C)nc2ccc(Br)cc2c1S` [AB00279343], the EC50 in series [1] worked out at 20.7 µg/mL. Besides, the CC50 at 6 days in series [2] is > 25 µg/mL.

`CC(=O)CCc1c(O)nc2ccccc2c1C` [AB00279389] displayed an EC50 in series [1] of 14.2 µg/mL. Moreover, the CC50 at 6 days in series [2] was > 25 µg/mL.

In turn, `Cc1nc(N)sc1-c1csc(Nc2ccccn2)n1` [AB00280085] came in with an EC50 in series [1] of 18.9 µg/mL. In addition, the CC50 at 6 days in series [2] was > 25 µg/mL.

For the compound `O=C(Nc1ccc(Nc2ccccc2)cc1)c1ccccc1F` [AB00282102], in series [1], a half-maximal response (EC50) required 12 µg/mL. In series [2], the cytotoxic concentration (CC50) at 6 days is > 25 µg/mL.

`CCOC(=O)c1ccc(NC(=O)CN(c2ccccc2Br)S(C)(=O)=O)cc1` [AB00282821] yielded a 50% effective concentration (EC50) in series [1] of 14.5 µg/mL. Further, the CC50 at 6 days in series [2] was > 25 µg/mL.

`O=c1cnnc(N/N=C/c2ccccc2Br)[nH]1` [AB00283422] yielded an EC50 in series [1] of 15.8 µg/mL. In series [2], the CC50 at 6 days is > 25 µg/mL.

In series [1], `Cc1cc(C)cc(OCC(O)CNC(C)c2ccccc2)c1` (centres unmarked) [AB00283699] came in with an EC50 of 12.9 µg/mL. Moreover, the CC50 at 6 days in series [2] is > 25 µg/mL.

For the compound `Cc1ccccc1C(=O)Nc1sc2c(c1C(=O)N1CCN(Cc3ccccc3)CC1)CCCCC2` [AB00284323], the midpoint of the response in series [1], the EC50, lay at 17.5 µg/mL. For the same compound, the CC50 at 6 days in series [2] is > 25 µg/mL.

As to `Cc1ccc2nc(SCCC#N)nc(C)c2c1` [AB00284847], in series [1], the midpoint of the response, the EC50, lay at 22.5 µg/mL. In addition, the half-maximal cytotoxic concentration (CC50) at 6 days in series [2] is > 25 µg/mL.

As to `O=C(O)c1ccc(-c2cccc(Cl)c2Cl)o1` [AB00287600], a half-maximal response in series [1] (EC50) required 12.7 µg/mL. Also, in series [2], the 50% cytotoxic concentration (CC50) at 6 days was > 25 µg/mL.

For `COc1ccc(-c2cn3cccnc3n2)cc1` [AB00288908], in series [1], the concentration giving a half-maximal response (EC50) is 21.6 µg/mL.

For the compound `CCOc1ccccc1OCCOCCOc1cccc2cccnc12` [AB00289145], the concentration giving a half-maximal response (EC50) in series [1] worked out at 24.2 µg/mL. In series [2], the CC50 at 6 days is > 25 µg/mL.

In the case of `COc1ccccc1OCC(=O)Nc1ccc(Br)cc1C(=O)O` [AB00290004], the concentration for a half-maximal effect (EC50) in series [1] was determined as 23.2 µg/mL. In addition, the cytotoxic concentration (CC50) at 6 days in series [2] was > 25 µg/mL.

As to `CNC(=O)Nc1ccccc1C(=O)Nc1ccc(C)cc1` [AB00290142], in series [1], a half-maximal response (EC50) required 19.4 µg/mL. Moreover, in series [2], the CC50 at 6 days is > 25 µg/mL.

Take `CCCCSc1nc(=O)c(C(c2ccccc2)c2ccccc2)c(O)[nH]1` [AB00291408]: in series [1], a half-maximal effect (EC50) was put at 24.2 µg/mL. The cytotoxic concentration (CC50) at 6 days in series [2] was > 25 µg/mL.

Compound `CCOc1ccc(NC(=O)CSC2=C(C#N)C(c3ccncc3)C(C(=O)Nc3ccccc3)=C(C)N2)cc1` (centres unmarked) [AB00292155] returned a half-maximal effective concentration (EC50) in series [1] of 15.7 µg/mL. Further, in series [2], the cytotoxic concentration (CC50) at 6 days is > 25 µg/mL.

As for `COc1cc(-c2nnc(SCc3cc(Cl)cc(Cl)c3)o2)cc(OC)c1OC` [AB00292171], in series [1], the midpoint of the response, the EC50, lay at 7.64 µg/mL. Moreover, in series [2], the CC50 at 6 days was > 25 µg/mL.

In turn, `COc1ccc(NC(=O)CN2c3cccc4cccc(c34)S2(=O)=O)c(OC)c1` [AB00293237] gave a concentration giving a half-maximal response (EC50) in series [1] of 10.3 µg/mL. Further, the CC50 at 6 days in series [2] was > 25 µg/mL.

In series [1], `CC(=O)c1ccc2c3c(ccc(O)c13)CC2` [AB00293238] registered a concentration giving a half-maximal response (EC50) of 11.4 µg/mL. Moreover, the CC50 at 6 days in series [2] was > 25 µg/mL.

On to `Cc1cc(C)cc(NC(=O)c2cccc(NC(=O)c3ccco3)c2)c1` [AB00293678], for which the half-maximal effective concentration (EC50) in series [1] is 18.6 µg/mL. In series [2], the cytotoxic concentration (CC50) at 6 days is > 25 µg/mL.

Turning to `Cc1ccc2nc(-c3ccccc3)c(CN3CCCC3)c(O)c2c1` [AB00293683], in series [1], the EC50 came out at 18.8 µg/mL. In series [2], the cytotoxic concentration (CC50) at 6 days is > 25 µg/mL.

In series [1], `Fc1cccc(COc2ccc(C(=S)N3CCOCC3)cc2)c1` [AB00293926] displayed an EC50 of 10.8 µg/mL. Further, the CC50 at 6 days in series [2] was > 25 µg/mL.

In series [1], `NC(=O)CC1Nc2ccccc2NC1=O` (centres unmarked) [AB00294484] showed an EC50 of 16.4 µg/mL. Moreover, the CC50 at 6 days in series [2] was > 25 µg/mL.

In turn, `O=C(Nc1ccc2oc(-c3ccccc3Br)nc2c1)c1ccco1` [AB00294890] yielded an EC50 in series [1] of 22.5 µg/mL. Further, the CC50 at 6 days in series [2] is > 25 µg/mL.

Compound `CCn1c(COc2ccccc2OC)nc2ccccc21` [AB00296345] had an EC50 in series [1] of 18.9 µg/mL. In addition, the CC50 at 6 days in series [2] is > 25 µg/mL.

Turning to `COc1cc([N+](=O)[O-])ccc1NC(=O)C1CC(Cl)=CCC1C(=O)O` (centres unmarked) [AB00296680], in series [1], it took 12.9 µg/mL to reach a half-maximal effect (EC50). Further, the CC50 at 6 days in series [2] was > 25 µg/mL.

`Cc1ccc(-c2csc3nc[nH]c(=O)c23)cc1C` [AB00297372]: in series [1], the EC50 turned out to be 10.9 µg/mL. The CC50 at 6 days in series [2] is > 25 µg/mL.

As to `Cc1ccc(C(=O)Nc2ccc(OC(C)C)cc2)cc1C` [AB00297482], the EC50 in series [1] was 14.1 µg/mL. In series [2], the CC50 at 6 days is > 25 µg/mL.

Regarding `Cc1ccc(S(=O)(=O)NC2CCCC(C(=O)Oc3ccc4c(c3)oc(=O)c3ccccc34)C2)cc1` (centres unmarked) [AB00297971], a half-maximal effect in series [1] (EC50) was put at 19.2 µg/mL. In addition, the CC50 at 6 days in series [2] was > 25 µg/mL.

On to `Cc1ccc(S(=O)(=O)NC(C(=O)Oc2ccc3c(c2)oc(=O)c2ccccc23)c2ccccc2)cc1` (centres unmarked) [AB00297982], for which the response in series [1] was half-maximal at 11 µg/mL (EC50). The CC50 at 6 days in series [2] is > 25 µg/mL.

In series [1], `CCC(Oc1ccc(-c2ccc(C)cc2)cc1)C(=O)OC` (centres unmarked) [AB00298660] had a concentration for a half-maximal effect (EC50) of 13.5 µg/mL. Also, the CC50 at 6 days in series [2] is > 25 µg/mL.

In series [1], `COc1ccc(C(=O)N2CCC(C(=O)Nc3cccc(C(F)(F)F)c3)CC2)cc1` [AB00298665] returned an EC50 of 12.1 µg/mL. Besides, in series [2], the cytotoxic concentration (CC50) at 6 days is > 25 µg/mL.

`O=C(C1CCN(S(=O)(=O)c2ccccc2)CC1)N1CCc2ccccc2C1` [AB00298862]: it took 20.4 µg/mL to reach a half-maximal effect in series [1] (EC50). In addition, in series [2], the CC50 at 6 days is > 25 µg/mL.

As for `COC(=O)Cc1ccc2c3ccccc3n(C)c2c1` [AB00299031], the 50% effective concentration (EC50) in series [1] amounted to 21.7 µg/mL. Also, the half-maximal cytotoxic concentration (CC50) at 6 days in series [2] was > 25 µg/mL.

The compound `CC1=CC(C)(C)Nc2ccc(OC(=O)C(Cc3ccccc3)N3C(=O)C4CCCCC4C3=O)cc21` (centres unmarked) [AB00299290] gave an EC50 in series [1] of 15.8 µg/mL. The CC50 at 6 days in series [2] is > 25 µg/mL.
